Test results: BigSolDB 2.1

CC(C)(C#N)N=NC(C)(C)C#N
Conditions	solubility (mole fraction)
in acetone, 278.15 K	0.0518
in acetone, 283.45 K	0.062
in acetone, 288.75 K	0.0741
in acetone, 293.05 K	0.0881
in acetone, 297.85 K	0.106
in acetone, 302.95 K	0.127
in acetone, 307.95 K	0.145
in acetone, 312.75 K	0.176
in acetone, 318.05 K	0.209
in acetone, 322.75 K	0.236
in benzene, 279.25 K	0.0254
in benzene, 283.75 K	0.0311
in benzene, 290.05 K	0.0411
in benzene, 293.65 K	0.049
in benzene, 298.05 K	0.0603
in benzene, 303.25 K	0.077
in benzene, 307.95 K	0.0938
in benzene, 312.65 K	0.119
in benzene, 317.65 K	0.151
in benzene, 322.25 K	0.181
in ethanol, 278.55 K	0.00263
in ethanol, 284.35 K	0.00408
in ethanol, 288.95 K	0.00511
in ethanol, 293.15 K	0.00667
in ethanol, 297.85 K	0.00938
in ethanol, 302.95 K	0.0128
in ethanol, 307.65 K	0.0165
in ethanol, 312.55 K	0.0221
in ethanol, 317.65 K	0.0314
in ethanol, 322.55 K	0.0427
in ethyl acetate, 278.15 K	0.0349
in ethyl acetate, 282.85 K	0.0424
in ethyl acetate, 287.75 K	0.053
in ethyl acetate, 293.65 K	0.0669
in ethyl acetate, 298.35 K	0.0821
in ethyl acetate, 303.15 K	0.0959
in ethyl acetate, 307.85 K	0.119
in ethyl acetate, 312.95 K	0.144
in ethyl acetate, 317.95 K	0.175
in ethyl acetate, 322.95 K	0.206
in methanol, 268.15 K	0.0034
in methanol, 273.15 K	0.00441
in methanol, 278.15 K	0.00567
in methanol, 283.15 K	0.00738
in methanol, 288.15 K	0.00942
in methanol, 293.15 K	0.0124
in methanol, 298.15 K	0.0162
in methanol, 303.15 K	0.0212
in methanol, 308.15 K	0.0277
in methanol, 313.15 K	0.0364
in methanol, 318.15 K	0.0479
in methanol, 323.15 K	0.0637
